# Data: patent publication US20250231185A1, “Coronavirus T Cell Epitopes, Megapools and Uses Thereof” (La Jolla Institute for Immunology, priority 2021, published 2025)
# Where two headings read alike, the source gives them in different places.
# Tests used:
# CD8+ T cells [1] = assay: Meta-analysis of published SARS-CoV-2 CD8 T cell epitope data curated in the IEDB (25 studies); format: cell-based, human
# CD8+ T cells [2] = details: cited from earlier work
# [3] = SARS-CoV-2-derived CD8 epitopes, dominant = recognized by 3 or more donors/different studies
# [4] = T cell type (CD4 or CD8) recognizing the SARS-CoV-2 epitope
# [5] = SARS-CoV-2 Ag S, CD8 epitopes, dominant = recognized by 3 or more donors/different studies
# [6] = SARS-CoV-2 Ag S, T cell type recognizing the epitope
# [7] = CD8-restricted SARS-CoV-2 epitopes, Yes = recognized by 3 or more donors/different studies
# [8] = CD8S (D) Megapool, antigen S, dominant = recognized in 3 or more donors/studies
Substance,Dominant (CD8+ T cells [1]; [3]),Restriction (CD8+ T cells [2]; [4]),Dominant (CD8+ T cells [1]; [5]),Restriction (CD8+ T cells [2]; [6]),other results
909 (ALRANSAVK) [compound 909],Yes (more dominant epitopes are defined by being recognized by 3 or more donors/different studies),CD8,,,
1362 (TEILPVSMTK) [compound 1362],,,Yes (more dominant epitopes are defined by being recognized by 3 or more donors/different studies),CD8,
1389 (MIAQYTSAL) [compound 1389],,,Yes (more dominant epitopes are defined by being recognized by 3 or more donors/different studies),CD8,
1442 (GTHWFVTQR) [compound 1442],,,Yes (more dominant epitopes are defined by being recognized by 3 or more donors/different studies),CD8,
914 (VTDTPKGPK) [compound 914],Yes (more dominant epitopes are defined by being recognized by 3 or more donors/different studies),CD8,,,
1042 (IVDTVSALV) [compound 1042],Yes (more dominant epitopes are defined by being recognized by 3 or more donors/different studies),CD8,,,
1458 (YEQYIKWPWYI) [compound 1458],,,Yes (more dominant epitopes are defined by being recognized by 3 or more donors/different studies),CD8,
1055 (AIMTRCLAV) [compound 1055],Yes (more dominant epitopes are defined by being recognized by 3 or more donors/different studies),CD8,,,
1321 (SFELLHAPATV) [compound 1321],,,Yes (more dominant epitopes are defined by being recognized by 3 or more donors/different studies),CD8,
1033 (SSNVANYQK) [compound 1033],Yes (more dominant epitopes are defined by being recognized by 3 or more donors/different studies),CD8,,,
1345 (IPIGAGICASY) [compound 1345],,,Yes (more dominant epitopes are defined by being recognized by 3 or more donors/different studies),CD8,
1319 (QPYRVVVL) [compound 1319],,,Yes (more dominant epitopes are defined by being recognized by 3 or more donors/different studies),CD8,
1342 (IGAEHVNNSY) [compound 1342],,,Yes (more dominant epitopes are defined by being recognized by 3 or more donors/different studies),CD8,
995 (FYAYLRKHF) [compound 995],Yes (more dominant epitopes are defined by being recognized by 3 or more donors/different studies),CD8,,,
1366 (TECSNLLLQY) [compound 1366],,,Yes (more dominant epitopes are defined by being recognized by 3 or more donors/different studies),CD8,
1084 (MLWCKDGHV) [compound 1084],Yes (more dominant epitopes are defined by being recognized by 3 or more donors/different studies),CD8,,,
1315 (FQPTNGVGY) [compound 1315],,,Yes (more dominant epitopes are defined by being recognized by 3 or more donors/different studies),CD8,
1304 (NYNYLYRLFRK) [compound 1304],,,Yes (more dominant epitopes are defined by being recognized by 3 or more donors/different studies),CD8,
1422 (HLMSFPQSA) [compound 1422],,,Yes (more dominant epitopes are defined by being recognized by 3 or more donors/different studies),CD8,
1012 (LYLQYIRKL) [compound 1012],Yes (more dominant epitopes are defined by being recognized by 3 or more donors/different studies),CD8,,,
1052 (VLWAHGFEL) [compound 1052],Yes (more dominant epitopes are defined by being recognized by 3 or more donors/different studies),CD8,,,
1056 (IEYPIIGDEL) [compound 1056],Yes (more dominant epitopes are defined by being recognized by 3 or more donors/different studies),CD8,,,
1386 (LTDEMIAQY) [compound 1386],,,Yes (more dominant epitopes are defined by being recognized by 3 or more donors/different studies),CD8,

Substance,Dominant (CD8+ T cells [1]; [3]),Restriction (CD8+ T cells [2]; [4]),Dominant (CD8+ T cells [1]; [5]),Restriction (CD8+ T cells [2]; [6]),other results
1020 (LVLSVNPYV) [compound 1020],Yes (more dominant epitopes are defined by being recognized by 3 or more donors/different studies),CD8,,,
913 (YTELEPPCRF) [compound 913],Yes (more dominant epitopes are defined by being recognized by 3 or more donors/different studies),CD8,,,
1425 (FPQSAPHGVVF) [compound 1425],,,Yes (more dominant epitopes are defined by being recognized by 3 or more donors/different studies),CD8,
1069 (NLWNTFTRL) [compound 1069],Yes (more dominant epitopes are defined by being recognized by 3 or more donors/different studies),CD8,,,
1352 (SIIAYTMSL) [compound 1352],,,Yes (more dominant epitopes are defined by being recognized by 3 or more donors/different studies),CD8,
1365 (STECSNLLLQY) [compound 1365],,,Yes (more dominant epitopes are defined by being recognized by 3 or more donors/different studies),CD8,
1313 (YFPLQSYGF) [compound 1313],,,Yes (more dominant epitopes are defined by being recognized by 3 or more donors/different studies),CD8,
920 (TVLSFCAFAV) [compound 920],Yes (more dominant epitopes are defined by being recognized by 3 or more donors/different studies),CD8,,,
1452 (RLNEVAKNL) [compound 1452],,,Yes (more dominant epitopes are defined by being recognized by 3 or more donors/different studies),CD8,
961 (ISDYDYYRY) [compound 961],Yes (more dominant epitopes are defined by being recognized by 3 or more donors/different studies),CD8,,,
1008 (RILGAGCFV) [compound 1008],Yes (more dominant epitopes are defined by being recognized by 3 or more donors/different studies),CD8,,,
1057 (ALLADKFPV) [compound 1057],Yes (more dominant epitopes are defined by being recognized by 3 or more donors/different studies),CD8,,,
YLQPRTFLL [SEQ ID NO: 1481],,,,,"found to be positive in independent studies (CD8+ T cells [1]; overall, all curated studies): 11 independent studies; recognized in subjects (CD8+ T cells [2]; Ferretti et al., 67% of the subjects tested): ≥ 3 subjects; IFN-f response (CD8+ T cells [2]; Habel et al., 14 peptides screened, HLA-A*02:01): strongest; detected in HLA-A2+ individuals (CD8+ T cells [2]; Nielsen study, HLA-A*02:01): 81%; responses detected in patients (CD8+ T cells [2]; Rha et al., 37 of 112 and 2 of 40 patients): 33%; MHC class I multimer+ cells in unexposed subjects (CD8+ T cells [2]; Rha et al.): not detected; dominance as reported (CD8+ T cells [2]; Sahin et al.): most dominant epitope"
1398 (NQKLIANQF) [compound 1398],,,Yes (more dominant epitopes are defined by being recognized by 3 or more donors/different studies),CD8,
1238 (SSANNCTFEY) [compound 1238],,,,,Dominant (CD8+ T cells [1]; [7]): Yes (more dominant epitopes are defined by being recognized by 3 or more donors/different studies)
860 (VLAWLYAAV) [compound 860],Yes (more dominant epitopes are defined by being recognized by 3 or more donors/different studies),,,,
833 (TFYLTNDVSFL) [compound 833],Yes (more dominant epitopes are defined by being recognized by 3 or more donors/different studies),,,,
1266 (YLQPRTFLL) [compound 1266],,,,,Dominant (CD8+ T cells [1]; [7]): Yes (more dominant epitopes are defined by being recognized by 3 or more donors/different studies)
1190 (KLGSLVVRC) [compound 1190],,,,,Dominant (CD8+ T cells [1]; [7]): Yes (more dominant epitopes are defined by being recognized by 3 or more donors/different studies)
1502 (LLFNKVTLA) [compound 1502],,,,,Dominant (CD8+ T cells [1]; [8]): Yes (more dominant epitopes are defined by being recognized by 3 or more donors/different studies)
1512 (HLMSFPQSA) [compound 1512],,,,,Dominant (CD8+ T cells [1]; [8]): Yes (more dominant epitopes are defined by being recognized by 3 or more donors/different studies)
1507 (NQKLIANQF) [compound 1507],,,,,Dominant (CD8+ T cells [1]; [8]): Yes (more dominant epitopes are defined by being recognized by 3 or more donors/different studies)
1251 (LPQGFSAL) [compound 1251],,,,,Dominant (CD8+ T cells [1]; [7]): Yes (more dominant epitopes are defined by being recognized by 3 or more donors/different studies)
